Results reported in patent US20080103191A1, “ENTACAPONE-DERIVATIVES” (priority 2006, published 2008).
≈ marks a conversion by molar mass, not a printed value. Read-outs that look alike come from different tables or passages of the source.

Key:
[1] = Chemical hydrolysis stability at pH 1 and pH 7.4 (HPLC); type: physicochemical; conditions: 37° C., over 12 h
Description: The stability of compounds of the present invention is tested at pH 1 and at pH 7.4. The testing is carried out by the following HPLC method:
Chemical hydrolysis rates t1/2 [h] of selected compounds of formula I are determined in 0.1 N HCl (pH 1) and PBS buffer (pH 7.4) solution. Solutions are prepared by dissolving an appropriate amount of compound in 0.1 N HCl and PBS buffer solution. Samples were withdrawn at designated time intervals and analysed for remaining prodrug by HPLC at 37° C. over 12 h.
Reversed phase gradient HPLC method, column YMC Pro C8, 50 mm×4.0 mm, 3 μm, Eluent A: Water:trifluoroacetic acid (100:0.5 (v/v)), Eluent B: Acetonitrile:trifluoroacetic:acid (100:0.5 (v/v)). Column temperature 30° C., Flow rate 3.0 mL/min, Detection wavelength: 220 nm
For evaluation, the peak area of the respective compound from the first injection is defined as 100% relative concentration. The peak areas of all other subsequent injections are calculated in percentage relating to this standard. (relative concentration in %). The relative concentrations are plotted in a logarithmic scale (ln) against the injection times. Based on the assumption of a first order kinetic, the rate constant and half life times (t1/2 [h]) can be calculated.

[2] = Solubility in 0.1 N HCl, PBS buffer, FaSSIF and FeSSIF; type: physicochemical; conditions: thermodynamic from solid
Description: For testing solubility, saturated solutions of selected compounds of formula I are prepared in four different systems and compared to the solubility of entacapone. The solubility is tested in 0.1 N HCl (pH 1), PBS buffer (pH 7.4) and in two simulated gastric fluids, FaSSIF at pH 6.5 (for fasting state) and FeSSIF at pH 5.0 (for fed state) at ambient temperature. The content of the FaSSIF simulated gastric fluid is as follows:
The solubility testing is carried out by the following method: An excess amount of each compound is added to a 0.1 N HCl, PBS buffer, FeSSIF and FaSSIF. The suspensions are shaken for 10 min. After centrifugation the concentration is determined by HPLC. Reversed phase gradient HPLC method, column YMC Pro C8, 50 mm×4.0 mm, 3 μm, Eluent A: Water:trifluoroacetic acid (100:0.5 (v/v)), Eluent B: Acetonitrile:trifluoroacetic:acid (100:0.5 (v/v)). Column temperature 30° C., Flow rate 3.0 mL/min, Detection wavelength: 220 nm

[3] = Log D (pH 7.4) by isocratic HPLC; type: physicochemical; conditions: YMC Pro C18 column, phosphate buffer pH 7.4/acetonitrile 45/55
Description: LogD is an indicator for absorption and lipophilicity for ionized compounds under defined pH conditions and is measured by applying an isocratic HPLC Method at pH 7.4.
The log D has been tested at pH 7.4. The testing has been carried out by the following method: Isocratic HPLC method: Column YMC Pro C18, 150 mm×4.0 mm, 3 μm, Eluent Phosphate buffer pH 7.4/acetonitrile (45/55, (v/v)), Runtime 15-60 min, Flow rate 1.2 ml/min, Detection wavelength: 220 nm

[4] = Permeability in Caco-2 cells, apical to basolateral; type: in vitro ADME; parameters: dose or concentration left out as unconfirmed; conditions: human; 21d Caco-2 monolayer, apical pH 6.5 to basolateral pH 7.4, 60 minutes
Text: The human adenocarcinoma cell line Caco-2 is used as an in vitro system to predict oral absorption. These cells serve as a model of small bowel tissue and permeation through these cells is a predictor for gastro-intestinal absorption. Further to being a model for oral absorption, permeability in Caco-2 cells may be predictive for the blood brain barrier permeability (P. Garberg et al.; Toxicology in vitro 19 (2005); 299-334). […] The permeability in Caco-2 cells has been tested by the following method:
The permeability of selected compounds of formula I across Caco-2 (21d Caco-2-culture) monolayer in the apical to basolateral direction is investigated. Control substances were ^3H-propranolol and ^3H-mannitol.
The nominal concentration of the test items is […]. The pH value is set to 6.5 for the apical transport medium and to 7.4 for the basolateral medium. Samples are obtained following 60 minutes (120 minutes for control samples) incubation from the basolateral receiver chamber. At sampling time approximately 600 μL of each well are transferred into an eppendorf vial and stored between −12° and −30° C. until HPLC or LC-MS/MS analysis. The control substances are quantified by liquid scintillation.

[5] = Solubility in Labrasol and TPGS/PG formulations; type: physicochemical
Description: Selected lipophilic carbonate compounds of formula I with promising Caco-2 permeabilities are formulated with different lipids/lipophilic excipients and/or micelles forming compounds in order to increase their solubilities. The following formulations are prepared by mixing the ingredients mentioned below: • i) Formulations comprising solubilizers in the form of lipides/lipophilic excipients: • ia) Formulation comprising Labrasol® and the selected compounds of Formula I • Labrasol®: • Caprylocaproyl macrogol-8-glyceride (CAS No. 85536-07-8 and 84963-88-2). This is a mixture of mono-, di- and triesters of glycerol and of PEG 400 with medium-chain fatty acids (C8-C10) which is marketed, for example, by Gattefossé under the mark Labrasol®; Labrasol® has an HLB value (hydrophil-lipophil-balance, Griffin, W. C.: Classification of surface active agents by HLB, J. Soc. Cosmet. 1, 1949) of 14 and has the following composition by weight:
• ib) Formulation comprising NanoSolve® 5401 (Lipoid GmbH, Germany) and the selected compounds of formula I • ic) Formulation comprising TPGS/PG in a weight ratio of 25% by weight of TPGS to 75% by weight of PG and the selected compounds of formula I. • PG: propylene glycol • TPGS: Vitamin E TPGS NF (d-α-tocopheryl polyethylene glycol 1000 succinate) which is marketed, for example, by Eastman Chemical Co • ii) Formulation comprising a micelles forming agent: • iia) Aqueous formulation comprising 30% by weight of Cremophor® RH 40 (relating to the weight of the aqueous phase) in water and the selected compounds of formula I • Cremophor® RH 40: • Generic names: • Polyoxyl 40 Hydrogenated Castor Oil (USP/NF). • Macrogol-Glycerolhydroxystearat (DAB). • Polyoxyethylenglyceroltrihydroxystearat (DAC). • Cremophor RH 40 is a non-ionic solubilizer and emulsifying agent obtained by reacting 45 moles of ethylene oxide with 1 mole of hydrogenated castor oil. The main constituent of Cremophor RH 40 is glycerol polyethylene glycol oxystearate, which, together with fatty acid glycerol polyglycol esters, forms the hydrophobic part of the product. The hydrophilic part consists of polyethylene glycols and glycerol ethoxylate. Cremophor RH 40 is a white to yellowish thin paste at 20° C. The HLB value lies between 14 and 16. Cremophor RH 40 is marketed by BASF AG.
The solubility of selected compounds of formula I in these formulations is measured and compared to the solubility of the compounds in 0.1N HCl (pH 1.0), PBS buffer (pH 7.4), and two simulated gastric fluids (i.e., FaSSIF (pH 6.5) simulating fasting sate and FeSSIF (pH 5.0) simulating fed state) (see above for details).

[6] = Storage stability at ambient temperature; type: physicochemical; conditions: glass bottles, more than two years, reanalysis by HPLC/MS and NMR
[7] = 0.1 N HCl, pH 1, simulated gastric fluid, Table 11, maximum solubility, read-out: Solubility 0.1N HCl pH 1.0
[8] = 0.1 N HCl, pH 1, simulated gastric fluid, ambient temperature, shaken 10 min, read-out: Solubility 0.1N HCl Ph 1.0
[9] = FaSSIF, pH 6.5, fassif, Table 11, read-out: Solubility FaSSIF pH 6.5
[10] = FaSSIF, pH 6.5, fassif, fasting state fluid, ambient temperature, read-out: Solubility FaSSIF Ph 6.5
[11] = FeSSIF, pH 5, fessif, Table 11, read-out: Solubility FeSSIF pH 5.0
[12] = FeSSIF, pH 5, fessif, fed state fluid, ambient temperature, read-out: Solubility FeSSIF Ph 5.0
[13] = PBS buffer, pH 7.4, aqueous buffer, Table 11, read-out: Solubility PBS pH 7.4
[14] = PBS buffer, pH 7.4, aqueous buffer, ambient temperature, read-out: Solubility PBS Ph 7.4
[15] = Labrasol, oil or lipid, read-out: Solubility Labrasol ®

Question: What does the source list for `CCC(CC)OC(=O)Oc1cc(/C=C(\C#N)C(=O)N(CC)CC)cc([N+](=O)[O-])c1O` [Compound 10, Carbonic acid 5-((E)-2-cyano-2-diethylcarbamoyl-vinyl)-2-hydroxy-3-nito-phenyl ester 1-ethyl-propyl ester]?
Answer: half-life ([1]; pH 1, 0.1 N HCl, read-out: t1/2 at pH 1 (converted)): 38.5 h; half-life ([1]; pH 7.4, PBS buffer, read-out: t1/2 at pH 7.4 (converted)): 38.5 h; solubility at 10 min [2, 7]: 30 µg/mL (≈ 71.5 µM); solubility at 10 min [2, 8]: 30 µg/mL (≈ 71.5 µM); solubility at 10 min [2, 9]: 840 µg/mL (≈ 2000 µM); solubility at 10 min [2, 10]: 840 µg/mL (≈ 2000 µM); solubility at 10 min [2, 11]: 1330 µg/mL (≈ 3170 µM); solubility at 10 min [2, 12]: 190 µg/mL (≈ 453 µM); solubility at 10 min [2, 13]: 190 µg/mL (≈ 453 µM); solubility at 10 min [2, 14]: 1330 µg/mL (≈ 3170 µM); chromatographic logD [3]: 1.8; Papp A→B at 60 min [4]: 22.4 ×10⁻⁶ cm/s; solubility [5, 15]: 22000 µg/mL (≈ 52500 µM); solubility ([5]; organic solvent or mixture, 25% by weight TPGS, 75% by weight PG, read-out: Solubility TPGS/PG): 3900 µg/mL (≈ 9300 µM)

Question: Which “t1/2 at pH 1” value ([1]; 0.1 N HCl) does the source give for `CCN(CC)C(=O)/C(C#N)=C/c1cc(O)c(O)c([N+](=O)[O-])c1` [entacapone, (E)-N,N-diethyl-2-cyano-3-(3,4-dihydroxy-5-nitrophenyl)acrylamide] here?
Answer: stable

Question: And the “t1/2 at pH 7.4” value ([1]; PBS buffer)?
Answer: stable

Question: What about the solubility at 10 min [2, 7] of the same compound?
Answer: 50 µg/mL (≈ 164 µM)

Question: And the solubility at 10 min [2, 8]?
Answer: 50 µg/mL (≈ 164 µM)

Question: What about the solubility at 10 min [2, 9] of the same compound?
Answer: 150 µg/mL (≈ 491 µM)

Question: What about the solubility at 10 min [2, 10] of the same compound?
Answer: 150 µg/mL (≈ 491 µM)

Question: What about the solubility at 10 min [2, 11] of the same compound?
Answer: 990 µg/mL (≈ 3240 µM)

Question: And the solubility at 10 min [2, 12]?
Answer: 990 µg/mL (≈ 3240 µM)

Question: What about the solubility at 10 min [2, 13] of the same compound?
Answer: 1350 µg/mL (≈ 4420 µM)

Question: And the solubility at 10 min [2, 14]?
Answer: 1350 µg/mL (≈ 4420 µM)

Question: What about the chromatographic logD [3] of the same compound?
Answer: 0.5

Question: And the Papp A→B at 60 min [4]?
Answer: 17 ×10⁻⁶ cm/s

Question: And the degradation on storage [6]?
Answer: without degradation

Question: And the solubility [5, 15]?
Answer: 23000 µg/mL (≈ 75300 µM)
